Measured values as given in patent publication US11471390B2, “Pseudoceramide compound and use thereof” (DAEBONG LS, LTD, priority 2017, dated 2022).

Test system: Raw264.7 macrophage cells
Experiment: Cell viability of Raw264.7 macrophage cells by MTT assay (cytotoxicity)
Assay type: cell-based
Details: Raw264.7, MTT
Description: The cell viabilities of Raw264.7 macrophage cells were assessed by MTT assay to evaluate the cytotoxicities of the pseudoceramide compounds. When the cell viability was ≥80% by MTT assay, the pseudoceramide compound was judged to be not cytotoxic. The cell viabilities of the pseudoceramide compounds were […] at concentrations of 1-50 μg/mL, indicating no toxicity to Raw264.7 macrophage (Table 1). Another experiment for anti-inflammatory effects of the pseudoceramide compounds was conducted at concentrations of 1-50 μg/mL.

Cc1ccnc(N)c1 [2-Amino-4-methylpyridine, reference compound] was tested, and the “Cell viability (%)” value (10 μM) was 103.13%.
CCCCCCCC/C=C\CCCCCCCC(=O)NC(CO)CO [Example 1, N-(1,3-dihydroxypropan-2-yl)oleamide] was tested, and the “Cell viability (%)” value (concentration 5.0 (μg/mL)) was 100.99%, the “Cell viability (%)” value (concentration 10.0 (μg/mL)) was 102.08% and the “Cell viability (%)” value (concentration 25.0 (μg/mL)) was 102.14%. The “Cell viability (%)” value (concentration 50.0 (μg/mL)) was 102.22%.
With CCCCC/C=C\C/C=C\CCCCCCCC(=O)NC(CO)CO [Example 2, (9Z,12Z)—N-(1,3-dihydroxypropan-2-yl)octadeca-9,12-dienamide] the “Cell viability (%)” value (concentration 5.0 (μg/mL)) was 100.35%, the “Cell viability (%)” value (concentration 10.0 (μg/mL)) was 100.24% and the “Cell viability (%)” value (concentration 25.0 (μg/mL)) was 100.09%. For the same compound, the “Cell viability (%)” value (concentration 50.0 (μg/mL)) was 93.80%.
In the case of CC/C=C\C/C=C\C/C=C\CCCCCCCC(=O)NC(CO)CO [Example 3, (9Z,12Z,15Z)—N-(1,3-dihydroxypropan-2-yl)octadeca-9,12,15-trienamide], the “Cell viability (%)” value (concentration 5.0 (μg/mL)) is reported as 95.72%, the “Cell viability (%)” value (concentration 10.0 (μg/mL)) is reported as 101.01% and the “Cell viability (%)” value (concentration 25.0 (μg/mL)) is reported as 96.58%. For the same compound, the “Cell viability (%)” value (concentration 50.0 (μg/mL)) was 96.64%.
